In one data set the test system is T. cinnabarinus. As to the kind of experiment: Acaricidal activity against T. cinnabarinus (leaf spray on broad bean, 72 h). Format: in vivo, Tetranychus cinnabarinus. The conditions noted are these: for LC50: Tetranychus cinnabarinus, 72 h. As for the experimental part:
An acaricidal activity assay of the test compounds against mites was conducted according to procedures outlined in the literature. […] The stock solution was then diluted to a series of working concentrations with 1% Tween 80 to obtain the test solutions. Subsequently, the leaves of two-leaf-stage broad beans were inoculated with 150–200 female adult T. cinnabarinus mites and reared in a greenhouse (26 ± 1 °C, 75–80% RH, 16 h light and 8 h dark alternatively) for 8 h. The test solution of the compound was then evenly sprayed on these leaves, which were then cultivated in the greenhouse for 72 h. In the blank control group, Tween 80 (1%) was used instead of the treatment solution. Cyetpyrafen (CAS NO. 1253429-01-4) was used as a positive control. Each treatment was repeated three times. The dead insects were recorded under a stereoscope, and the corrected mortalities of mites treated with the compounds were calculated.

Data set [1] is described as follows: Toxicity to brine shrimp Artemia. Type of data set: in vivo, Artemia salina. The conditions noted are these: Artemia salina (brine shrimp), in vivo, other: immersion in test solution. As for the experimental part:
The toxicity of the title compounds to the brine shrimp A. salina was evaluated according to the reported method. […] Subsequently, approximately 50 hatched (10 h instar) brine shrimp were transferred into each pore of a 24-well plate filled with the test solutions. Finally, the brine shrimp were reared in an illumination incubator (28 ± 1 °C, 12 h light and 12 h dark alternatively) for 24 h. DMSO—1% Tween 20 was used as a blank control. Each treatment was conducted in triplicate. The dead insects were recorded under a stereoscope, and the corrected mortalities of A. salina treated with the compounds were calculated.

The next data set deals with T1, AChE (Electrophorus electricus, UniProt O42275).
T1 construct: purchased Sigma–Aldrich Chemie GmbH (Buchs, Switzerland)
The data set is described as follows: In vitro AChE inhibition (ELISA kit). Format: biochemical, electric eels. As for the experimental part: The effects of the title compounds on the in vitro AChE activity were evaluated using ELISA technology. AChE derived from electric eels was purchased from Sigma–Aldrich Chemie GmbH (Buchs, Switzerland). Briefly, the AChE was preincubated with different concentrations (500, 250, 125, 62.5, 31.25, 15.625, and 7.8125 μg/mL) of the compounds in PBS solution. Then, the AChE activities after incubation were measured using the corresponding ELISA kit according to the manufacturer’s instructions (Jiancheng, Nanjing, China). The detection was performed using a multifunctional microplate reader (SpectraMax® M2e, Thermo Scientific, Waltham, MA, USA).

The mark [2] stands for this setting: main text and Figure 5, read-out: LC50 against T. cinnabarinus.
Where [3] appears, read: read-out: Lethal activity to Artemia LC50.
The mark [4] stands for this setting: Table S1, read-out: Acaricidal activity LC50.
Where [5] appears, read: 12 h, read-out: Lethal activity to Artemia LC50.

This is an account of results in article PMC9865501, “Design and Synthesis of Scopoletin Sulfonate Derivatives as Potential Insecticidal Agents” (Molecules, 2023).

In brackets after ≈: the same amount, converted by molar mass. Where two headings read alike, the source gives them in different places.

T1 sequence (O42275 24-633): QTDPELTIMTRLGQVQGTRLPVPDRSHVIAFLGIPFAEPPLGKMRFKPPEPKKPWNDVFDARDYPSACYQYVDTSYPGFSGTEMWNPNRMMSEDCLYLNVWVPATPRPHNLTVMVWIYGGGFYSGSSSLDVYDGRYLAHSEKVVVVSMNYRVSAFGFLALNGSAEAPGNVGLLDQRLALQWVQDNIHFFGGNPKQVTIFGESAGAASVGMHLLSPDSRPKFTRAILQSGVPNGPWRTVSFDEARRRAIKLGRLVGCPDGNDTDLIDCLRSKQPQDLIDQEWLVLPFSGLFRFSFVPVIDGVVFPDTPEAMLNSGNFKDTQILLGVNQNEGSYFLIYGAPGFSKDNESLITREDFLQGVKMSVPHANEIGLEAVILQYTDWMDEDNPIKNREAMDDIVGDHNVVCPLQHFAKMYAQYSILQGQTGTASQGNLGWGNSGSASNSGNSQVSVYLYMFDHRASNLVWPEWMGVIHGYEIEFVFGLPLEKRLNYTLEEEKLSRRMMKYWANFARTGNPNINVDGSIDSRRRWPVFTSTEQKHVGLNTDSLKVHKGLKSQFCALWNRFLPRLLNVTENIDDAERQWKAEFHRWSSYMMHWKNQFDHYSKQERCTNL

As a reminder, the LC50 is the concentration lethal to half of the exposed cells or organisms. The term IC50 denotes the concentration that gives 50% inhibition. As for `COc1cc2ccc(=O)oc2cc1OS(=O)(=O)c1ccc2ccccc2c1` [Compound 4j], the LC50 with T. cinnabarinus (setting [2]) was found to be 93 µg/mL (≈ 243 µM). Moreover, in data set [1] (setting [3]), the LC50 at 6 h is 13.6 µg/mL (≈ 35.6 µM). Further, in data set [1] (abstract (equals the 12 h value), read-out: LC50 against A. salina), the median lethal concentration (LC50) at 12 h worked out at 9.36 µg/mL (≈ 24.5 µM). In addition, at AChE, the IC50 is 148 µM.

Regarding `COc1cc2cc(C(C)=O)c(=O)oc2cc1OS(=O)(=O)c1ccc(Cl)cc1` [Compound 6d], the 50% lethal concentration (LC50) with T. cinnabarinus (setting [4]) stood at 159 µg/mL (≈ 389 µM). Besides, the median lethal concentration (LC50) at 6 h in data set [1] (setting [3]) was 45.5 µg/mL (≈ 111 µM). Moreover, in data set [1] (setting [5]), the median lethal concentration (LC50) at 12 h amounted to 27.9 µg/mL (≈ 68.2 µM). Further, the IC50 at AChE is 355 µM.

As to `COc1cc2cc(-c3ccc(F)cc3)c(=O)oc2cc1OS(=O)(=O)c1ccc(Br)cc1` [Compound 5e], the LC50 in the data set on T. cinnabarinus (setting [4]) turned out to be 80 µg/mL (≈ 158 µM). Moreover, the median lethal concentration (LC50) at 6 h in data set [1] (setting [3]) worked out at 114 µg/mL (≈ 226 µM). In addition, the 50% lethal concentration (LC50) at 12 h in data set [1] (setting [5]) amounted to 79.5 µg/mL (≈ 157 µM). The compound also gave a half-inhibitory concentration (IC50) on AChE of 141 µM.

As to `COc1cc2cc(-c3ccc(F)cc3)c(=O)oc2cc1OS(=O)(=O)c1cccs1` [Compound 5i], the LC50 with T. cinnabarinus (setting [4]) was 73 µg/mL (≈ 169 µM). Besides, the “acaricidal toxicity relative to compound 5” value with T. cinnabarinus (compared with compound 5) is reported as “approximately 2 times”. In addition, the 50% lethal concentration (LC50) at 6 h in data set [1] (setting [3]) was found to be 99.8 µg/mL (≈ 231 µM). Moreover, the LC50 at 12 h in data set [1] (setting [5]) was found to be 56.7 µg/mL (≈ 131 µM). The compound also gave a concentration for half-maximal inhibition (IC50) against AChE of 255 µM.

For `COc1cc2cc(-c3ccc(F)cc3)c(=O)oc2cc1OS(=O)(=O)c1ccc(Cl)cc1` [Compound 5d], the LC50 in the data set on T. cinnabarinus (setting [4]) turned out to be 99 µg/mL (≈ 215 µM). In addition, in data set [1] (setting [3]), the median lethal concentration (LC50) at 6 h stood at 72.8 µg/mL (≈ 158 µM). The 50% lethal concentration (LC50) at 12 h in data set [1] (setting [5]) came to 33.7 µg/mL (≈ 73.1 µM). For the same compound, half-maximal inhibition against AChE (IC50) was put at 149 µM.

Turning to `COc1cc2cc(C(=O)Nc3ccc(Br)cc3)c(=O)oc2cc1OS(=O)(=O)c1ccc(Cl)cc1` [Compound 7d], the LC50 with T. cinnabarinus (setting [4]) was 89 µg/mL (≈ 158 µM). Moreover, in data set [1] (setting [3]), the LC50 at 6 h is 54.2 µg/mL (≈ 96 µM). Also, the LC50 at 12 h in data set [1] (setting [5]) came out at 39.4 µg/mL (≈ 69.8 µM). This compound also gave an IC50 on AChE of 174 µM.

Take `COc1ccc(S(=O)(=O)Oc2cc3oc(=O)ccc3cc2OC)cc1` [Compound 4b]: the LC50 in the data set with T. cinnabarinus (setting [4]) amounted to 209 µg/mL (≈ 577 µM). Moreover, the LC50 at 6 h in data set [1] (setting [3]) turned out to be 38.6 µg/mL (≈ 107 µM). Also, in data set [1] (setting [5]), the LC50 at 12 h amounted to 18.2 µg/mL (≈ 50.2 µM). On AChE, this compound had an IC50 of 304 µM.

On to `COc1cc2ccc(=O)oc2cc1O` [Compound 4, 7-hydroxy-6-methoxy-2H-chromen-2-one], for which, in the data set on T. cinnabarinus (setting [4]), the LC50 came out at 144 µg/mL (≈ 749 µM). Also, in data set [1] (setting [3]), the LC50 at 6 h came out at 27.2 µg/mL (≈ 142 µM). Moreover, the 50% lethal concentration (LC50) at 12 h in data set [1] (setting [5]) is 14.2 µg/mL (≈ 73.9 µM). The same compound had a concentration for half-maximal inhibition (IC50) against AChE of 551 µM.

For `COc1cc2ccc(=O)oc2cc1OS(=O)(=O)c1cccs1` [Compound 4i], the LC50 with T. cinnabarinus (setting [4]) was 489 µg/mL (≈ 1450 µM). The LC50 at 6 h in data set [1] (setting [3]) worked out at 76.5 µg/mL (≈ 226 µM). In data set [1] (setting [5]), the LC50 at 12 h amounted to 45.1 µg/mL (≈ 133 µM). On AChE, the IC50 was 432 µM.

Consider `COc1cc2cc(C(C)=O)c(=O)oc2cc1O` [Compound 6, 3-acetyl-7-hydroxy-6-methoxy-2H-chromen-2-one], for which the LC50 in the data set on T. cinnabarinus (setting [4]) is 81 µg/mL (≈ 346 µM); with T. cinnabarinus (setting [2]), 81 to 116 µg/mL (≈ 346 to 495 µM). Moreover, the 50% lethal concentration (LC50) at 6 h in data set [1] (setting [3]) came out at 56.5 µg/mL (≈ 241 µM). Moreover, in data set [1] (setting [5]), the LC50 at 12 h turned out to be 35.6 µg/mL (≈ 152 µM). The same compound showed a concentration for half-maximal inhibition (IC50) against AChE of 395 µM.

Turning to `COc1cc2cc(C(C)=O)c(=O)oc2cc1OS(=O)(=O)c1cc(Cl)c(Cl)cc1Cl` [Compound 6h], the median lethal concentration (LC50) with T. cinnabarinus (setting [4]) worked out at 107 µg/mL (≈ 224 µM). In addition, in data set [1] (setting [3]), the LC50 at 6 h came out at 48.5 µg/mL (≈ 102 µM). The 50% lethal concentration (LC50) at 12 h in data set [1] (setting [5]) amounted to 33.9 µg/mL (≈ 71 µM). On AChE, this compound gave an IC50 of 275 µM.

As to `COc1cc2ccc(=O)oc2cc1OS(=O)(=O)c1ccc(Cl)cc1` [Compound 4d], the LC50 in the data set on T. cinnabarinus (setting [4]) amounted to 529 µg/mL (≈ 1440 µM). Moreover, the LC50 at 6 h in data set [1] (setting [3]) came out at 33.6 µg/mL (≈ 91.6 µM). Further, the LC50 at 12 h in data set [1] (setting [5]) is 16 µg/mL (≈ 43.6 µM). Besides, the IC50 against AChE was 222 µM.

Turning to `COc1cc2cc(C(=O)Nc3ccc(Br)cc3)c(=O)oc2cc1OS(=O)(=O)c1ccccc1` [Compound 7a], in the data set on T. cinnabarinus (setting [4]), the median lethal concentration (LC50) stood at 117 µg/mL (≈ 221 µM). In data set [1] (setting [3]), the median lethal concentration (LC50) at 6 h was 57.6 µg/mL (≈ 109 µM). Further, in data set [1] (setting [5]), the LC50 at 12 h stood at 33.6 µg/mL (≈ 63.4 µM). This compound gave a 50% inhibitory concentration (IC50) against AChE of 221 µM.

For the compound `COc1ccc(S(=O)(=O)Oc2cc3oc(=O)c(-c4ccc(F)cc4)cc3cc2OC)cc1` [Compound 5b], the 50% lethal concentration (LC50) in the data set with T. cinnabarinus (setting [4]) was 338 µg/mL (≈ 741 µM). Also, the 50% lethal concentration (LC50) at 6 h in data set [1] (setting [3]) amounted to 94.5 µg/mL (≈ 207 µM). Besides, the 50% lethal concentration (LC50) at 12 h in data set [1] (setting [5]) came to 36.2 µg/mL (≈ 79.3 µM). The compound further gave an IC50 on AChE of 336 µM.
